Reference: patent publication US20260014285A1, “POLYPEPTIDE COMPOUND, AND COMPLEX AND USE THEREOF” (HANGZHOU HEALTHYTIDE BIOTECHNOLOGY CO., LTD., priority 2022, published 2026)
Non-standard residues stand in square brackets, D forms with d. Residues, ends and D or L forms follow the SMILES beside them. ξ: configuration not given here. *: point of attachment. DOTA = O=C(O)CN1CCN(CC(=O)O)CCN(CC(=O)*)CCN(CC(=O)O)CC1; NOTA = O=C(O)CN1CCN(CC(=O)O)CCN(CC(=O)*)CC1; PEG4 = NCCOCCOCCOCCOCCC(=O)O; ξIle = CC[C@H](C)C(N)C(=O)O; Pip = O=C(O)[C@@H]1CCCCN1; ξN = NC(=O)CC(N)C(=O)O; Aib = CC(C)(N)C(=O)O

Experiments:
integrin α5β1 = integrin α5β1 (Homo sapiens, UniProt P05556+P08648); experiment: Target affinity test by surface plasmon resonance (SPR), integrin α5β1; format: binding; details: for affinity constant (KD) to integrin α5β1, in words: SPR; for Kd: SPR (Biacore T200), CM5 chip, 25° C., KD=Kd/Ka
Chain of integrin α5β1 (P08648 42-995 limits assumed): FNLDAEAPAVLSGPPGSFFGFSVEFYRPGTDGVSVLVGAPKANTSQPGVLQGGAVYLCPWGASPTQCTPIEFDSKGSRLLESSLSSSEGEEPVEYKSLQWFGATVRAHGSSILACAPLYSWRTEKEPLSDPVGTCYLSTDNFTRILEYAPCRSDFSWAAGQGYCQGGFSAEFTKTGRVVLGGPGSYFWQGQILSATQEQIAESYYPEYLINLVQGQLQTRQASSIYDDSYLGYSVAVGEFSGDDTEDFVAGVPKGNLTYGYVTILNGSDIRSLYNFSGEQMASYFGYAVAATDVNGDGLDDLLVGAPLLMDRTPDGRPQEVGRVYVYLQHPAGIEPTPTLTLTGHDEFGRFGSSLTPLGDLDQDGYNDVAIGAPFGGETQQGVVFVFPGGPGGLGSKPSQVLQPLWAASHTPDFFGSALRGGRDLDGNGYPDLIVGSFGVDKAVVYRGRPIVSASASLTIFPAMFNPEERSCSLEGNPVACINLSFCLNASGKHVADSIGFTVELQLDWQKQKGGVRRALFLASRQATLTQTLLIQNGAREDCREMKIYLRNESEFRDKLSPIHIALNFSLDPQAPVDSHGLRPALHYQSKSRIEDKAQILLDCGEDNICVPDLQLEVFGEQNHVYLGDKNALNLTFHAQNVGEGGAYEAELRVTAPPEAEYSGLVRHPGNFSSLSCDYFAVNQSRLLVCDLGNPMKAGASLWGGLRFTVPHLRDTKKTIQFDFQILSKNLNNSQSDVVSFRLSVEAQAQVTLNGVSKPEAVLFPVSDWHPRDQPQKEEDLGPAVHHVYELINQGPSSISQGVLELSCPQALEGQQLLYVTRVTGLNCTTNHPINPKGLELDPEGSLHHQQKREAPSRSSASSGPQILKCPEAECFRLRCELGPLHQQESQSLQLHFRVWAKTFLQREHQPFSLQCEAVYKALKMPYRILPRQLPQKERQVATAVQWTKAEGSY
Chain of integrin α5β1 (P05556 21-728 limits assumed): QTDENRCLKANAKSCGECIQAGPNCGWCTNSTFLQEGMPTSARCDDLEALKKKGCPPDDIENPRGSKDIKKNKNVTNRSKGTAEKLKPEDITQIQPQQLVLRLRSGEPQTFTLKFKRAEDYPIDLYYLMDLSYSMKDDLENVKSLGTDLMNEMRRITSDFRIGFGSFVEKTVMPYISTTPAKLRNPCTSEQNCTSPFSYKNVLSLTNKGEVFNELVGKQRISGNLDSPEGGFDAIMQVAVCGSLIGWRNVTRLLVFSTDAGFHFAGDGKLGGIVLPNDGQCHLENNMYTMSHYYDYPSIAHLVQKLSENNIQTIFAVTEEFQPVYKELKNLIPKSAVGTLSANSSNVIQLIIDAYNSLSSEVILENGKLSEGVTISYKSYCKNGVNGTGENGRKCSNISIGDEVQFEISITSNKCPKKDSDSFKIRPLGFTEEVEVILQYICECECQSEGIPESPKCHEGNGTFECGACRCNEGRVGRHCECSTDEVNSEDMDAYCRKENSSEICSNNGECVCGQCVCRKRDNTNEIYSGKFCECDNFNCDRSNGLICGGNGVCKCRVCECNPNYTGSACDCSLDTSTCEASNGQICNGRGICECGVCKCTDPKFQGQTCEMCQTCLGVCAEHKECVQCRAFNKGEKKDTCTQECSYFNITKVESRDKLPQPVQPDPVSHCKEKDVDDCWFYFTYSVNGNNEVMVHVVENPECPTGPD
Procedure: (§1) Surface plasmon resonance (SPR) technique was used to test the affinity of the compound in the examples to the target protein integrin α5β1. Specifically, the following operations were performed.
(§2) The affinity constants (KD) of the compounds to the target proteins integrin α5β1, αvβ3, and αvβ5 were calculated according to the formula of KD=Kd/Ka (the lower the value of KD, the higher the affinity of the compounds of the examples to the target protein integrin α5β1).

integrin αvβ3 = integrin αvβ3 (Homo sapiens, UniProt P05106+P06756); experiment: Target affinity test by surface plasmon resonance (SPR), integrin αvβ3; format: binding; details: for affinity constant (KD) to integrin αvβ3, in words: SPR; for Kd: SPR (Biacore T200), CM5 chip, 25° C., KD=Kd/Ka
Chain of integrin αvβ3 (P06756 31-992 limits assumed): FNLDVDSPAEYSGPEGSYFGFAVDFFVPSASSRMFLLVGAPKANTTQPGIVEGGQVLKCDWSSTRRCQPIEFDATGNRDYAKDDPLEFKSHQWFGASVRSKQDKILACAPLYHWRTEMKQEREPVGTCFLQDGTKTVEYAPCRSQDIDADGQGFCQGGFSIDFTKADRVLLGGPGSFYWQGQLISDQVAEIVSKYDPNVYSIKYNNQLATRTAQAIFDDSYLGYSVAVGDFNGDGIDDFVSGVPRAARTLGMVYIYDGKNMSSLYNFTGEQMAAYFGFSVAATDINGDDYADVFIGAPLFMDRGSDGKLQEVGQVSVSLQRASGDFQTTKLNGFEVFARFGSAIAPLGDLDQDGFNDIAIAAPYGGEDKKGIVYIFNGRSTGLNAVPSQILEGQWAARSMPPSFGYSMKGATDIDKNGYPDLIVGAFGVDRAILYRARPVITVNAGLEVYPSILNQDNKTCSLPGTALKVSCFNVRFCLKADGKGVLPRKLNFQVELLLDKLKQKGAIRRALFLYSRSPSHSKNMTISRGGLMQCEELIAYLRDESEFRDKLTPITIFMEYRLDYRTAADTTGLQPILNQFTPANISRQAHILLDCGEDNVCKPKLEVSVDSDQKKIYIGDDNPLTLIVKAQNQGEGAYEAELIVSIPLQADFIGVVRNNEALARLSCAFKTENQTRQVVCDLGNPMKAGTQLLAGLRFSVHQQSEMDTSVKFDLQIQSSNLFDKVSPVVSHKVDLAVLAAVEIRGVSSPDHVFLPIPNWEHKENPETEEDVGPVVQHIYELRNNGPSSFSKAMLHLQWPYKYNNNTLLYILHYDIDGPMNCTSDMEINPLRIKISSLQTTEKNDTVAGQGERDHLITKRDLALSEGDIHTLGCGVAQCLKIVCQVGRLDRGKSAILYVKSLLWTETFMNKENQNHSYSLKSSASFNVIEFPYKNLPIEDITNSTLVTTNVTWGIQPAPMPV
Chain of integrin αvβ3 (P05106 27-718 limits assumed): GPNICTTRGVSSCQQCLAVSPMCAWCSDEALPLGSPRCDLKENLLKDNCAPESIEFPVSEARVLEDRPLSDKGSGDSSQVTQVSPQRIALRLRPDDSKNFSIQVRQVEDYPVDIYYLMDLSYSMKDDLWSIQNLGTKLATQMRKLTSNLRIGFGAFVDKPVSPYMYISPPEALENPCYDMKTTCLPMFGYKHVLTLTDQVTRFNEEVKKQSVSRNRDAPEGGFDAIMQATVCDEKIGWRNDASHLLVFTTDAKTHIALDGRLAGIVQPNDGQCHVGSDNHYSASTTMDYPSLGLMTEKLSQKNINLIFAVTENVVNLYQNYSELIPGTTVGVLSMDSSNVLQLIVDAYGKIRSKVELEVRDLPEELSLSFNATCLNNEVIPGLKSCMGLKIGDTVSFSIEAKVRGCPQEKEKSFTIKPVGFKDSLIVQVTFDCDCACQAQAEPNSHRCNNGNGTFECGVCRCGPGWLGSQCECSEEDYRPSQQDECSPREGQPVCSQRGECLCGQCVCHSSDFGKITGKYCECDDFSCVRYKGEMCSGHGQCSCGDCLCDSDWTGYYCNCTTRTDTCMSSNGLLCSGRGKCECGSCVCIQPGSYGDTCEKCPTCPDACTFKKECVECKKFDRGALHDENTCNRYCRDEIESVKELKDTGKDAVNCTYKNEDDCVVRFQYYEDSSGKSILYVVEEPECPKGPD
Procedure: as §1, §2

Row | Compound | affinity constant (KD) to integrin α5β1, in words (integrin α5β1) | Kd (integrin α5β1) [nM] | affinity constant (KD) to integrin αvβ3, in words (integrin αvβ3) | Kd (integrin αvβ3) [nM]
1 | CC[C@H](C)C(NC(=O)[C@@H](NC(=O)[C@H](CC(=O)O)NC(=O)[C@H](CC(=O)O)NC(=O)CNC(=O)[C@H](CCCNC(=N)N)NC(=O)CN1CCN(CC(=O)O)CCN(CC(=O)O)CC1)C(C)C)C(=O)N[C@@H](CC(N)=O)C(=O)N[C@@H](Cc1ccccc1)C(=O)O (stereo partly shown) [TM3] ({NOTA}-RGDDV[ξIle]NF-OH) | better than nM level | 1.92 |  | 
2 | CC[C@H](C)[C@H](NC(=O)[C@@H](NC(=O)[C@H](CC(=O)O)NC(=O)[C@H](CC(N)=O)NC(=O)CN1CCN(CC(=O)O)CCN(CC(=O)O)CCN(CC(=O)O)CC1)C(C)C)C(=O)N[C@@H](CC(N)=O)C(=O)O [TM4, DOTA-Asn-Asp-Val-Ile-Asn-OH] ({DOTA}-NDVIN-OH) |  | 16 | nM level | 2.88
3 | CC[C@H](C)[C@H](NC(=O)[C@@H](NC(=O)[C@H](CC(=O)O)NC(=O)[C@H](CC(N)=O)NC(=O)CCOCCOCCOCCOCCNC(=O)CN1CCN(CC(=O)O)CCN(CC(=O)O)CCN(CC(=O)O)CC1)C(C)C)C(=O)N[C@@H](CC(N)=O)C(=O)O [TM5] ({DOTA-PEG4}-NDVIN-OH) | better than nM level | 2.77 |  | 
4 | CC[C@H](C)[C@H](NC(=O)[C@@H](NC(=O)[C@H](CC(=O)O)NC(=O)[C@H](CC(N)=O)NC(=O)[C@H](CC(=O)O)NC(=O)CNC(=O)[C@H](CCCNC(=N)N)NC(=O)CN1CCN(CC(=O)O)CCN(CC(=O)O)CCN(CC(=O)O)CC1)C(C)C)C(=O)N[C@@H](CC(N)=O)C(=O)O [TM6] ({DOTA}-RGDNDVIN-OH) |  | 239 |  | 
5 | CC[C@H](C)[C@H](NC(=O)[C@@H](NC(=O)[C@H](CC(=O)O)NC(=O)[C@H](CC(N)=O)NC(=O)[C@H](CC(=O)O)NC(=O)CNC(=O)[C@H](CCCNC(=N)N)NC(=O)CCOCCOCCOCCOCCNC(=O)CN1CCN(CC(=O)O)CCN(CC(=O)O)CCN(CC(=O)O)CC1)C(C)C)C(=O)N[C@@H](CC(N)=O)C(=O)O [TM7] ({DOTA-PEG4}-RGDNDVIN-OH) |  | 43.9 |  | 
6 | CC[C@H](C)[C@H](NC(=O)[C@@H]1CCCCN1C(=O)[C@H](CC(=O)O)NC(=O)[C@H](CC(N)=O)NC(=O)CN1CCN(CC(=O)O)CCN(CC(=O)O)CCN(CC(=O)O)CC1)C(=O)NC(CC(N)=O)C(=O)O (stereo partly shown) [TM9] ({DOTA}-ND[Pip]I[ξN]-OH) | better than nM level | 5.58 | nM level | 1.8
7 | CC[C@H](C)[C@H](NC(=O)C(C)(C)NC(=O)[C@H](CC(=O)O)NC(=O)[C@H](CC(N)=O)NC(=O)CN1CCN(CC(=O)O)CCN(CC(=O)O)CCN(CC(=O)O)CC1)C(=O)N[C@@H](CC(N)=O)C(=O)O [TM11] ({DOTA}-ND[Aib]IN-OH) | better than nM level | 0.0681 |  | 190
